Measured values as given in ChEMBL document CHEMBL2331311, “Photoprotection of DNA (in vitro) by acyclothymidine dinucleosides” (Bioorg Med Chem Lett, 2013).
Activity calls are given as the source filed them. The rule behind the calls is not given here.

Tests used:
Vero = assay: Cytotoxicity against african green monkey Vero cells assessed as cell viability after 72 hrs by MTT assay; type: cell-based; settings: Chlorocebus sabaeus
MCF-10A = assay: Cytotoxicity against human MCF10A cells assessed as cell viability after 72 hrs by MTT assay; type: cell-based
[1] = Cytotoxicity against human fibroblasts assessed as cell viability after 72 hrs by MTT assay; type: cell-based; settings: Fibroblast
RPMI-8226 = assay: Photoprotection against UV light-induced DNA damage in human RPMI8226 cells at 10 mM treated in cream formulation measured for 3 hrs by agarose gel electrophoresis; type: functional, cell-based
[2] = Cytotoxicity against mouse Cloudman S91 cells assessed as cell viability after 72 hrs by MTT assay; type: cell-based; settings: S91, 72 h
[3] = Photoprotection against UV light-induced Escherichia coli pEGFP-C1 DNA damage at 10 mM treated in cream formulation measured for 2 hrs by agarose gel electrophoresis; type: functional
[4] = Photoprotection against UV light-induced Escherichia coli pEGFP-C1 DNA damage at 10 mM treated in 1N NaOH solution measured for 2 hrs by agarose gel electrophoresis; type: functional

## Cc1cn(CCCn2cc(C)c(=O)[nH]c2=O)c(=O)[nH]c1=O
Vero
  EC50: > 100 µM
MCF-10A
  EC50: > 100 µM
[1]
  EC50: > 100 µM
RPMI-8226
  Activity: Active
[2]
  EC50: > 100 µM
[3]
  Activity: Active
[4]
  Activity: Active
